Laboratory results published in ChEMBL document CHEMBL1147058, “An antibiotic produced by an insect-pathogenic bacterium suppresses host defenses through phenoloxidase inhibition” (Proc Natl Acad Sci U S A, 2007).
Active and inactive are the calls of the source. The calls are words filed in the database; no cut-off is given here.

Key:
[1] = biological target: T1, Prophenoloxidase (Manduca sexta) (UniProt Q0VJU6); assay: Inhibition of Manduca sexta phenoloxidase at 60 uM
T1 sequence (whole entry): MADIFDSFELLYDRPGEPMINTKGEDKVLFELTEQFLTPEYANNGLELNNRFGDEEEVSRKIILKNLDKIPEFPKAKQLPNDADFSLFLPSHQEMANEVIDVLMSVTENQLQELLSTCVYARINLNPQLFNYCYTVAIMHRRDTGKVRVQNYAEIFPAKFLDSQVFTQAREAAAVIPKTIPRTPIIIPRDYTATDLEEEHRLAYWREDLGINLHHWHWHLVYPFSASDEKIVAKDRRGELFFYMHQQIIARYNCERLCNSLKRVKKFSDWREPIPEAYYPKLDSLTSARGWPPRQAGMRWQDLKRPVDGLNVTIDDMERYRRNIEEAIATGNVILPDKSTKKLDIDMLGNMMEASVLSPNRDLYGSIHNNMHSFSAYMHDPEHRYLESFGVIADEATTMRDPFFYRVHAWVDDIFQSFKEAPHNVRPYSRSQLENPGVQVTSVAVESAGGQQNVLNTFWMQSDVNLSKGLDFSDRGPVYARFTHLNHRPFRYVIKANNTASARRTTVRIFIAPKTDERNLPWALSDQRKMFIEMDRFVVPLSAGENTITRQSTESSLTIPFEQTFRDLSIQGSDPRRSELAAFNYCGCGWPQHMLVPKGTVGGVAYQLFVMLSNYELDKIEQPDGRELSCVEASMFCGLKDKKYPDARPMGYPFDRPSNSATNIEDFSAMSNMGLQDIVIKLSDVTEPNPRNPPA

Photorhabdus luminescens [2] = assay: Induction of virulence of Photorhabdus luminescens TT01 assessed as decrease in survival of Photorhabdus luminescens TT01 infected Manduca sexta; format: functional
Photorhabdus luminescens [3] = assay: Induction of virulence of stlA deficient Photorhabdus luminescens BMM901 assessed as increase in proliferation of Photorhabdus luminescens BMM901 in Manduca sexta in presence of cinnamic acid; format: functional
Photorhabdus luminescens [4] = assay: Induction of virulence of Photorhabdus luminescens TT01 assessed as increase in proliferation of Photorhabdus luminescens TT01 in Manduca sexta; format: functional
[5] = Drug level in Photorhabdus luminescens TT01 infected Manduca sexta hemolymph after 24 hrs by TLC plate method; format: ADME, tissue-based; conditions: read-out: Drug uptake
Photorhabdus luminescens [6] = assay: Induction of virulence of stlA deficient Photorhabdus luminescens BMM901 assessed as decrease in survival of Photorhabdus luminescens BMM901 infected Manduca sexta in presence of cinnamic acid; format: functional
Photorhabdus luminescens [7] = assay: Induction of virulence of Photorhabdus luminescens TT01 assessed as increase in proliferation of Photorhabdus luminescens TT01 in Manduca sexta in presence of cinnamic acid; format: functional
Photorhabdus luminescens [8] = assay: Induction of virulence of Photorhabdus luminescens TT01 assessed as decrease in survival of Photorhabdus luminescens TT01 infected Manduca sexta in presence of cinnamic acid; format: functional
Manduca sexta = assay: Inhibition of immune system assessed as suppression of melanotic nodule formation in Photorhabdus luminescens TT01 infected Manduca sexta; format: functional, organism-based

CC(C)c1c(O)cc(/C=C/c2ccccc2)cc1O [TAPINAROF]
Activity [1]: Dose-dependent effect | Activity (Photorhabdus luminescens [2]): Active | Activity (Photorhabdus luminescens [3]): Active | Activity (Photorhabdus luminescens [4]): Active | concentration at 24 h [5]: 275 µg/mL | Activity (Photorhabdus luminescens [6]): Active | Activity (Photorhabdus luminescens [7]): Active | Activity (Photorhabdus luminescens [8]): Active | Activity (Manduca sexta): Active
